The results in this text go back to ChEMBL document CHEMBL1127112, “Synthesis and pharmacologic activity of hydroxyacetophenone-substituted benzophenone/xanthone leukotriene B4 receptor antagonists” (Bioorg Med Chem Lett, 1993).

The species named for this experiment is Homo sapiens. In words: Compound was evaluated for inhibition of LTB4 induced chemotaxis of human neutrophils. It counts as functional.

In general, IC50 refers to the concentration that gives 50% inhibition.

Structures are written as SMILES.

Take `CCc1cc(C(C)=O)c(O)cc1OCCCCCC(C)(C)c1nn[nH]n1` [LY-255283]: the half-maximal inhibitory concentration (IC50) was 7.4 µM. This counts as single-digit micromolar. With `CCc1cc(C(C)=O)c(O)cc1OCCCOc1ccc2c(=O)c3cc(C(=O)O)ccc3oc2c1CCC(=O)O` the figure was 0.32 µM; with `CCc1cc(C(C)=O)c(O)cc1OCCCOc1ccc(C(=O)c2cccc(C(=O)O)c2)cc1CCC(=O)O`, 16 µM. With `COc1ccc(/C=C/CCCCOc2ccc(C(=O)c3cccc(C(=O)O)c3)cc2CCC(=O)O)cc1` the figure was 6 µM.
